Test results taken from patent US20120042398A1, “COMPOSITIONS FOR LABELING AND IDENTIFYING AUTOPHAGOSOMES AND METHODS FOR MAKING AND USING THEM” (SAN DIEGO STATE UNIVERSITY (SDSU) FOUNDATION, priority 2008, published 2012).

Key:
autophagic vesicles (AV) = test: MDC staining of AV in cell or tissue preparations; type: cell-based
From the text: Initial synthesis of autophagic specific dyes of this invention was based on MDC. […] In alternative embodiments, dyes used in compositions of this invention are vesicle selective, have multiple fluorescent excitation/emission spectra and can be used for several imaging applications. Thus, the new dyes of this invention will greatly benefit autophagy research.

[1] = Fluorophore properties (pKa, pH stability, photostability, storage stability); type: physicochemical; conditions: for photostability / photobleaching: normal fluorescence exposure
[2] = system: mCherry-LC3 puncta (autophagosomes) in heart; test: MDC labeling of cardiac tissue in mCherry-LC3 mice; type: in vivo; conditions: MDC 1.5 mg/kg i.p. 1 hr before sacrifice, heart sections
Procedure: To examine its labeling profile in cardiac tissues, mCherry-LC3 mice were injected with MDC (1.5 mg/kg i.p.) 1 hr before being sacrificed, e.g., see Iwai-Kanai (2008) supra, Yitzhaki (2009) Basic Res. Cardiol. 104:157-167. Hearts were collected and frozen tissues sections prepared for imaging. Under conditions where autophagy is activated and mCherry-LC3 puncta formed, MDC-labeled structures were similarly up regulated, see FIG. 4, and see e.g. Iwai-Kanai (2008) supra. MDC labeled a subset of mCherry-LC3-positive structures, presumably fused autolysosome vesicles.
FIG. 4 illustrates three images, including mCherry and MDC labeling of vesicles. mCherry-LC3 expressing mice were treated with rapamycin and hearts prepared for fluorescent imaging. […] The right image of FIG. 4 is a merge of the mCherry-LC3 and MDC images.

[3] = system: autophagic vesicles in Atg1-/- fat body tissue; test: FITC-TG / LYSOTRACKER staining of Atg1-/- mutant fat body tissue; type: cell-based, Drosophila; conditions: starvation and hormone-dependent induction
Procedure: These studies indicates the FITC-dyes highlight a population of vesicles that are distinct from LYSOTRACKER™ and could be used to study the early in vivo formation, maturation and fusion events of AV within cells. To further confirm the specificity of the FITC-TG AV staining, fat body tissue was prepared from Atg1−/− larvae and compared with wild type controls. Signaling of the Atg1 protein kinase is essential for pathway induction and AV formation, see e.g., (21, 57). In Drosophila loss-of-function mutations in this gene result in late pupal lethality but have a minor impairment on early development, thus providing sufficient material for imaging studies. […] This staining pattern is consistent with lysosomes maturing from the endosomal pathway but AV failing to be formed under normal physiological conditions. FIG. 8 illustrates images of stained tissues from: Fed (left column images), fasted (middle column images) and hormone-induced (“3rd instar” right column images) autophagy profiles in wildtype (upper row images) and Atg1−/− mutant (lower row images) cells. Fat body tissue from larvae that were fed, fasted or undergoing hormone-induced autophagy were collected and stained with LYSOTRACKER™ (red) and the exemplary FITC-TG (green). […] While LYSOTRACKER™ puncta are detected (red) in these Atg1^−/− mutant tissues, the exemplary FITC-TG dye fails to stain autophagosomes or autolysosomes.

HL-1 cells = test: High-throughput cadaverine plate-reader assay of autophagy (ALEXAFLUOR488-cadaverine fluorescence); type: cell-based, Mouse; conditions: FIG. 1
Procedure: For 24 Well Plates: • Plate 75,000 cells per well • Wait for cells to achieve approximately 80% confluence (approximately 1 day) • Treat cells (3 h 30 min starvation, 3 mL of medium) • Rinse cells with PBS (1 ml) • Incubate cells with probe for 10 minutes at 37° C. • Wash cells four times with PBS (1 mL) • Lyse cells by incubating in 10 mM Tris-Cl pH 8 containing 0.1% Triton X-100 for 20 minutes (500 uL) • Measure fluorescence in plate reader • Add ethidium bromide to a final concentration of 0.2 mM and measure fluorescence (exc=530 nm; em=590 nm) • Normalize results to the number of cells (ethidium bromide reading)
Probes: • ALEXAFLUOR488™ cadaverine (A30676, Invitrogen, Carlsbad, Calif.) • Final concentration 25 uM, exc=493 nm; em=516 nm. • BODIPY TR™ cadaverine (D6251, Invitrogen, Carlsbad, Calif.) • Final concentration 125 nM, exc=588 nm; em=616 nm.

[4] = system: autophagic vesicles (AV) in fat body tissue; test: Staining of fresh Drosophila larval fat body tissue (AV labeling); type: cell-based; conditions: 10 μM dye, 10 min
Procedure: Staining of Drosophila Tissues. To perform a rapid first-pass examination of the compounds ability to stain AV we examined fat body tissues from wandering 3rd instar Drosophila larvae. 1 mM DMSO stock solutions were prepared for each compound and stored at −20° C. Fat body tissue from wild type fly larvae were dissected from the surrounding cuticle and organs, and placed in 1 ml iced PBS solution. Tissues were immediately stained for 10 min, in a final 10 μM concentration for each dye. Samples were rinsed twice with 1×PBS, mounted with VECTASHIELD™ (Vector Laboratories, Inc, Burlingame, Calif.) and immediately imaged using a scanning confocal fluorescent microscope (Leica, FITC channel). As a positive control, fly tissues (3rd instar) were also stained with BODIPY-TexasRed-cadaverine (Invitrogen, red).

[5] = system: autophagosomes in heart tissue; test: Heart perfusion with BODIPY-TR-cadaverine, dye incorporation into autophagosomes read in plate reader; conditions: perfused hearts, FIG. 2
Procedure: 1) Mince 1-5 mm^3 tissue sample in 1-2 mL homogenization buffer in 35 mm dish 2) Polytron at ½ speed, 5 sec, on ice in 15 mL round bottom polypropylene tube 3) Spin out nuclei and heavy membranes @ 1000 g, 5 min, 4° C. in 15 mL Falcon tube 4) Move post-nuclear supernatant into 1.5 mL Eppendorf tube 5) Add MDC (or Cadaverine 488) to final concentration of 25 μM 6) Incubate on ice 10 min protected from light 7) Spin sample 20,000×g, 20 min, 4° C. 8) Aspirate supernatant and rinse off pellet with 1 mL cold resuspension buffer 2×'s 9) Resuspend pellet in 350 μL resuspension buffer until mixed evenly 10) Add 100 μL per well in triplicate to black 96-well plate 11) Read on Fluorescence plate reader @ excitation/emission 495 nm/519 nm 12) Use remaining sample to run Bradford assay to quantify protein concentration.
The hearts were perfused with BODIPY-TR™-cadaverine followed by washout, then homogenized and fluorescence read in plate reader. […] FIG. 2 right image is a graph illustrating quantitation of dye incorporation into autophagosomes, with the left column graphically quantitating the upper left image's fluorescence and the right column graphically quantitating the lower left image's (the Tat-Atg5(K130R)-inhibited) fluorescence.

[6] = cited from earlier work

SMILES: CN(C)c1cccc2c(S(=O)(=O)NCCCCCN)cccc12 [MDC, monodansylcadaverine]
- usability on fixed samples (autophagic vesicles (AV)): cannot be used on fixed samples
- stability during storage [1]: stability issues during storage
- photostability / photobleaching [1]: significant photobleaching
- co-localization of MDC labeling with mCherry-LC3 puncta [2]: excellent co-localization

SMILES: CN(C)CCNC(=O)CCc1ccc2n1[B-](F)(F)[N+]1=C(c3ccc[nH]3)C=CC1=C2 [LYSOTRACKER™]
- vesicle staining in Atg1-/- flies [3]: some LYSOTRACKER™ positive staining

SMILES: CO/C1=C\C(C)=C\[C@@H](C)[C@@H](O)[C@@H](C)C/C(C)=C/C=C/[C@H](OC)[C@@H]([C@@H](C)[C@@H](O)[C@H](C)[C@@]2(O)C[C@@H](O)[C@H](C)[C@@H](C(C)C)O2)OC1=O [Bafilomycin A1]
- effect on starvation-increased autophagy (relative ALEXAFLUOR488-cadaverine fluorescence normalized to cell number) (HL-1 cells): partially blocked

SMILES: Cl.NCCCCCNC(=O)COc1ccc(C2=[N+]3C(=Cc4ccc(-c5cccs5)n4[B-]3(F)F)C=C2)cc1 [BODIPY-cadaverine, 5-(((4-(4,4-difluoro-5-(2-thienyl)-4-bora-3a,4a-diaza-s-indacene-3-yl)phenoxy)acetyl)amino)pentylamine, hydrochloride]
- staining of intracellular vesicles / cytoplasmic puncta in fresh tissue [4]: robust staining pattern

SMILES: CCN(CC)CCCC(C)Nc1ccnc2cc(Cl)ccc12 (centres unmarked) [chloroquine]
- effect on starvation-increased autophagy (relative ALEXAFLUOR488-cadaverine fluorescence normalized to cell number) (HL-1 cells): partially blocked

SMILES: Nc1ccc(S(=O)(=O)Nc2ccnn2-c2ccccc2)cc1 [Sulfaphenazole]
- effect on autophagy (BODIPY-TR-cadaverine incorporation into autophagosomes) [5]: potent inducer of autophagy

SMILES: O=C1OC2(c3cc(F)c(O)cc3Oc3cc(O)c(F)cc32)c2ccccc21 [Oregon Green 488, Difluoro-fluorescein]
- photostability / photobleaching [1]: excellent photostability
- pKa [6]: 4.7
